# Results: patent US20260055103A1, “2,3,4,9-TETRAHYDRO-1H-PYRIDO[3,4-B]INDOLE DERIVATIVES AS ESTROGEN RECEPTOR MODULATORS FOR THE TREATMENT OF CANCER” (Olema Pharmaceuticals, Inc., priority 2022, published 2026)
# Target: T1, estrogen receptor (Homo sapiens, UniProt P03372)
# T1 construct: endogenous in cells; host or cells: ECC-1 cells
# T1 sequence (P03372 1-595): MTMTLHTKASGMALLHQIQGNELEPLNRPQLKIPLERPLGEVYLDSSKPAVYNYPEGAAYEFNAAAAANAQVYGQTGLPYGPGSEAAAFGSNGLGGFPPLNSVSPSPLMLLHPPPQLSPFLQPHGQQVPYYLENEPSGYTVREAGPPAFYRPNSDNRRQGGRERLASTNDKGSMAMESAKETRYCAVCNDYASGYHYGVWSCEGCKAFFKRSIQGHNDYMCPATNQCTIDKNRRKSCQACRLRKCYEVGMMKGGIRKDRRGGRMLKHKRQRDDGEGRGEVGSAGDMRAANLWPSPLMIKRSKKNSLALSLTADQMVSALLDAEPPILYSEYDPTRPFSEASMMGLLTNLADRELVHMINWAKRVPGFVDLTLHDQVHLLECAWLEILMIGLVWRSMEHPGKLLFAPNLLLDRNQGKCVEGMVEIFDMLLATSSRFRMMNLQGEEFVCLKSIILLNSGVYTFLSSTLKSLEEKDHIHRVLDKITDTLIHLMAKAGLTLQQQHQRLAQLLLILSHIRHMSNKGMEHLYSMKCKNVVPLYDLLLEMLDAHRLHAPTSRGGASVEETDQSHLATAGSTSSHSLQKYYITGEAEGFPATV
# Experiment: Alkaline phosphatase (AP) assay in ECC-1 cells, agonist mode (no E2) and antagonist mode (500 pM E2)
# Format: cell-based
# Conditions: 3 days, AP activity normalized to 500 pM E2 alone, agonist mode without E2, antagonist mode with 500 pM E2
# Method in brief: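 ECC-1 cells in hormone-depleted medium treated 3 days with compound alone (agonist mode) or with 500 pM E2 (antagonist mode). Alkaline phosphatase read by p-nitrophenyl phosphate hydrolysis, 40 min at 42° C, A405. Activity normalized to 500 pM E2 alone.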
row,SMILES,"Activity (estrogen receptor modulation, agonism and antagonism)"
1,"C[C@@H]1Cc2c([nH]c3ccccc23)[C@@H](c2ccc(SC3CN(CCCF)C3)s2)N1CC(C)(C)F [Example I-61, 3-({5-[(1S,3R)-2-(2-fluoro-2-methylpropyl)-3-methyl-1H,2H,3H,4H,9H-pyrido[3,4-b]indol-1-yl]thiophen-2-yl}sulfanyl)-1-(3-fluoropropyl)azetidine]",++ (estrogen receptor antagonism having (i) between 10% and 80% increase in the E2-normalized signal in the AP assay (agonist mode) and (ii) between 10% and 80% reduction in the E2-normalized signal in the AP assay (antagonist mode))
2,"CCCN1CC(Sc2ccc([C@@H]3c4[nH]c5ccccc5c4C[C@@H](C)N3CC(C)(C)F)s2)C1 [Example I-62, 3-({5-[(1S,3R)-2-(2-fluoro-2-methylpropyl)-3-methyl-1H,2H,3H,4H,9H-pyrido[3,4-b]indol-1-yl]thiophen-2-yl}sulfanyl)-1-propylazetidine]",++ (estrogen receptor antagonism having (i) between 10% and 80% increase in the E2-normalized signal in the AP assay (agonist mode) and (ii) between 10% and 80% reduction in the E2-normalized signal in the AP assay (antagonist mode))
3,"C[C@@H]1Cc2c([nH]c3ccccc23)[C@@H](c2cnc(NC3CN(CCCF)C3)s2)N1CC(F)(F)CO [Example I-63, 2,2-difluoro-3-[(1S,3R)-1-[2-[[1-(3-fluoropropyl)azetidin-3-yl]amino]thiazol-5-yl]-3-methyl-1,3,4,9-tetrahydropyrido[3,4-b]indol-2-yl]propan-1-ol]",++ (estrogen receptor antagonism having (i) between 10% and 80% increase in the E2-normalized signal in the AP assay (agonist mode) and (ii) between 10% and 80% reduction in the E2-normalized signal in the AP assay (antagonist mode))
4,"C[C@@H]1Cc2c([nH]c3ccccc23)[C@@H](c2cnc(N[C@H]3CN(CCCF)C[C@H]3F)s2)N1CC(F)(F)CO [Example I-64, 2,2-difluoro-3-[(1S,3R)-1-[2-[[(3S,4R)-4-fluoro-1-(3-fluoropropyl)pyrrolidin-3-yl]amino]thiazol-5-yl]-3-methyl-1,3,4,9-tetrahydropyrido[3,4-b]indol-2-yl]propan-1-ol]",++ (estrogen receptor antagonism having (i) between 10% and 80% increase in the E2-normalized signal in the AP assay (agonist mode) and (ii) between 10% and 80% reduction in the E2-normalized signal in the AP assay (antagonist mode))
5,"C[C@@H]1Cc2c([nH]c3ccccc23)[C@@H](c2cnc(N[C@H]3CN(CCCF)C[C@@H]3F)s2)N1CC(F)(F)CO [Example I-65, 2,2-difluoro-3-((1S,3R)-1-(2-(((3S,4S)-4-fluoro-1-(3-fluoropropyl)pyrrolidin-3-yl)amino)thiazol-5-yl)-3-methyl-1,3,4,9-tetrahydro-2H-pyrido[3,4-b]indol-2-yl)propan-1-ol]",+ (estrogen receptor agonism having (i) at least 80% increase in the E2-normalized signal in the AP assay (agonist mode) and (ii) no more than 80% reduction in the E2-normalized signal in the AP assay (antagonist mode))
6,C[C@@H]1Cc2c([nH]c3ccccc23)[C@@H](c2cnc(N[C@H]3CCCN(CCCF)C3)s2)N1CC(F)(F)CO [Example I-66],++ (estrogen receptor antagonism having (i) between 10% and 80% increase in the E2-normalized signal in the AP assay (agonist mode) and (ii) between 10% and 80% reduction in the E2-normalized signal in the AP assay (antagonist mode))
7,"C[C@@H]1Cc2c([nH]c3ccccc23)[C@@H](c2cnc(N[C@@H]3CCCN(CCCF)C3)s2)N1CC(F)(F)CO [Example I-67, 2,2-difluoro-3-((1S,3R)-1-(2-(((R)-1-(3-fluoropropyl)piperidin-3-yl)amino)thiazol-5-yl)-3-methyl-1,3,4,9-tetrahydro-2H-pyrido[3,4-b]indol-2-yl)propan-1-ol]",+ (estrogen receptor agonism having (i) at least 80% increase in the E2-normalized signal in the AP assay (agonist mode) and (ii) no more than 80% reduction in the E2-normalized signal in the AP assay (antagonist mode))
8,"C[C@@H]1Cc2c([nH]c3ccccc23)[C@@H](c2ccc(C3CCN(CCF)CC3)s2)N1CC(C)(C)F [Example I-68, (1S,3R)-1-[5-[1-(2-fluoroethyl)-4-piperidyl]-2-thienyl]-2-(2-fluoro-2-methyl-propyl)-3-methyl-1,3,4,9-tetrahydropyrido[3,4-b]indole]",++ (estrogen receptor antagonism having (i) between 10% and 80% increase in the E2-normalized signal in the AP assay (agonist mode) and (ii) between 10% and 80% reduction in the E2-normalized signal in the AP assay (antagonist mode))
9,"CCN1CCC(c2ccc([C@@H]3c4[nH]c5ccccc5c4C[C@@H](C)N3CC(C)(C)F)s2)CC1 [Example I-69, (1S,3R)-1-(5-(1-ethylpiperidin-4-yl)thiophen-2-yl)-2-(2-fluoro-2-methylpropyl)-3-methyl-2,3,4,9-tetrahydro-1H-pyrido[3,4-b]indole]",++ (estrogen receptor antagonism having (i) between 10% and 80% increase in the E2-normalized signal in the AP assay (agonist mode) and (ii) between 10% and 80% reduction in the E2-normalized signal in the AP assay (antagonist mode))
10,"CCCN1CCC(c2ccc([C@@H]3c4[nH]c5ccccc5c4C[C@@H](C)N3CC(C)(C)F)s2)CC1 [Example I-70, (1S,3R)-2-(2-fluoro-2-methyl-propyl)-3-methyl-1-[5-(1-propyl-4-piperidyl)-2-thienyl]-1,3,4,9-tetrahydropyrido[3,4-b]indole]",+ (estrogen receptor agonism having (i) at least 80% increase in the E2-normalized signal in the AP assay (agonist mode) and (ii) no more than 80% reduction in the E2-normalized signal in the AP assay (antagonist mode))
11,"C[C@@H]1Cc2c([nH]c3ccccc23)[C@@H](c2ccc(C3CCN(CCCF)CC3)s2)N1CC(C)(C)F [Example I-71, (1S,3R)-2-(2-fluoro-2-methyl-propyl)-1-[5-[1-(3-fluoropropyl)-4-piperidyl]-2-thienyl]-3-methyl-1,3,4,9-tetrahydropyrido[3,4-b]indole]",+ (estrogen receptor agonism having (i) at least 80% increase in the E2-normalized signal in the AP assay (agonist mode) and (ii) no more than 80% reduction in the E2-normalized signal in the AP assay (antagonist mode))
12,"C[C@@H]1Cc2c([nH]c3ccccc23)[C@@H](c2cnc(N[C@@H]3CN(CCCF)C[C@@H]3F)s2)N1CC(F)(F)CO [Example I-72, 2,2-difluoro-3-[(1S,3R)-1-[2-[[(3R,4S)-4-fluoro-1-(3-fluoropropyl)pyrrolidin-3-yl]amino]thiazol-5-yl]-3-methyl-1,3,4,9-tetrahydropyrido[3,4-b]indol-2-yl]propan-1-ol]",++ (estrogen receptor antagonism having (i) between 10% and 80% increase in the E2-normalized signal in the AP assay (agonist mode) and (ii) between 10% and 80% reduction in the E2-normalized signal in the AP assay (antagonist mode))
13,"C[C@@H]1Cc2c([nH]c3ccccc23)[C@@H](c2cnc(N[C@H]3CCN(CCCF)C3)s2)N1CC(F)(F)CO [Example I-73, 2,2-difluoro-3-[(1S,3R)-1-[2-[[(3S)-1-(3-fluoropropyl)pyrrolidin-3-yl]amino]thiazol-5-yl]-3-methyl-1,3,4,9-tetrahydropyrido[3,4-b]indol-2-yl]propan-1-ol]",++ (estrogen receptor antagonism having (i) between 10% and 80% increase in the E2-normalized signal in the AP assay (agonist mode) and (ii) between 10% and 80% reduction in the E2-normalized signal in the AP assay (antagonist mode))
14,"CCN1CCN(c2ccc([C@@H]3c4[nH]c5ccccc5c4C[C@@H](C)N3CC(C)(C)F)s2)CC1 [Example I-74, (1S,3R)-1-[5-(4-ethylpiperazin-1-yl)-2-thienyl]-2-(2-fluoro-2-methyl-propyl)-3-methyl-1,3,4,9-tetrahydropyrido[3,4-b]indole]",+ (estrogen receptor agonism having (i) at least 80% increase in the E2-normalized signal in the AP assay (agonist mode) and (ii) no more than 80% reduction in the E2-normalized signal in the AP assay (antagonist mode))
